Data reported in patent publication US10413505B1, “Pharmaceutical compositions and methods of using the same” (priority 2017, dated 2019).
Like-named read-outs stand apart in the source and are kept apart here.

Assays:
[1] = Example 3 urinary pharmacokinetics, normal hepatic function vs hepatic impairment; assay type: in vivo, human; details: for Urine Recovery as % of Dose, Geomean / Urine Recovery as % of Dose, Mean: 0-32 h, single intranasal dose; for CL renal: both sexes, other: intranasal (drug-soaked pledgets in the nasal cavity), 160 mg; for CL renal / dose excreted: human, urine; for dose excreted: other: intranasal, read-out: 0-32 h urinary recovery of unchanged drug as percent of the administered dose
Procedure: Urine was collected prior to dosing and from 0-2, 2-4, 4-8, 8-12, 12-24, and 24-32 hours after beginning of dose application. […] Urinary pharmacokinetic parameters included total urinary recovery (μg), urinary recovery as a percentage of dose, and CLr.

[2] = Example 3 plasma pharmacokinetics, normal hepatic function vs hepatic impairment; details: for AUC(0-t) / AUC(0-inf) / Cmax / Tmax / half-life: both, human, 160 mg
[3] = normal hepatic function, single intranasal 160 mg cocaine HCl
[4] = subjects with hepatic impairment, 32 hours post administration
[5] = hepatic impairment, single intranasal 160 mg cocaine HCl, plasma

For COC(=O)[C@H]1[C@@H](OC(=O)c2ccccc2)C[C@@H]2CC[C@H]1N2C [Cocaine, cocaine, reference compound], the “Urine Recovery as % of Dose, Geomean” value ([1]; Impaired hepatic function) was 0.071 % of Dose, the “Urine Recovery as % of Dose, Mean” value ([1]; Impaired hepatic function) was 0.143 % of Dose and the “Urine Recovery as % of Dose, Geomean” value ([1]; Normal hepatic function) was 0.057 % of Dose. For the same compound, the “Urine Recovery as % of Dose, Mean” value ([1]; Normal hepatic function) was 0.072 % of Dose, the CL renal ([1]; Impaired hepatic function, Table 26, read-out: CLr Geomean (converted)) was 7.8 mL/min and the CL renal ([1]; Impaired hepatic function, Table 26, read-out: CLr Mean (converted)) was 16.6 mL/min. It also gave a CL renal ([1]; Normal hepatic function, Table 26, read-out: CLr Geomean (converted)) of 19.5 mL/min, a CL renal ([1]; Normal hepatic function, Table 26, read-out: CLr Mean (converted)) of 29.8 mL/min and a CL renal ([1]; hepatically impaired patients, 32 hours from administration, read-out: renal clearance, range observed) of 1.27 to 32 mL/min. For the same compound, the CL renal ([1]; subjects with hepatic impairment, Table 30, read-out: Renal Clearance, geometric mean (converted)) was 7.79 mL/min, the CL renal ([1]; subjects with hepatic impairment, Table 30, read-out: Renal Clearance, mean (converted)) was 16.6 mL/min and the CL renal ([1]; subjects with hepatic impairment, Table 30, read-out: Renal Clearance, median (converted)) was 15.6 mL/min. The CL renal ([1]; subjects with hepatic impairment, read-out: Renal Clearance, geometric mean (converted)) was 7.79 mL/min, the CL renal ([1]; subjects with hepatic impairment, read-out: Renal Clearance, mean (converted)) was 16.6 mL/min and the CL renal ([1]; subjects with hepatic impairment, read-out: Renal Clearance, median (converted)) was 15.6 mL/min. For the same compound, the CL renal ([1]; subjects with normal hepatic function, Table 29, read-out: Renal Clearance, geometric mean (converted)) was 19.5 mL/min, the CL renal ([1]; subjects with normal hepatic function, Table 29, read-out: Renal Clearance, mean (converted)) was 29.8 mL/min and the CL renal ([1]; subjects with normal hepatic function, Table 29, read-out: Renal Clearance, median (converted)) was 22 mL/min. For the same compound, the CL renal ([1]; subjects with normal hepatic function, read-out: Renal Clearance, geometric mean (converted)) was 19.5 mL/min, the CL renal ([1]; subjects with normal hepatic function, read-out: Renal Clearance, mean (converted)) was 29.8 mL/min and the CL renal ([1]; subjects with normal hepatic function, read-out: Renal Clearance, median (converted)) was 22 mL/min. The dose excreted ([1]; hepatic impairment) was 0.071%, the dose excreted ([1]; normal hepatic function) was 0.057% and the “0-32 h Urinary Recovery (geometric mean)” value [1, 3] was 81.5 µg. The “0-32 h Urinary Recovery (mean)” value [1, 3] was 102.25 µg, the “0-32 h Urinary Recovery (median)” value [1, 3] was 108.1 µg and the “0-32 h Urinary Recovery (geometric mean)” value [1, 4] was 101.4 µg. For the same compound, the “0-32 h Urinary Recovery (mean)” value [1, 4] was 204 µg, the “0-32 h Urinary Recovery (median)” value [1, 4] was 193.5 µg and the “AUClast Ratio Grade B/Normal” value ([2]; ANOVA) was 284.54%. The “AUClast Ratio Grade C/Normal” value ([2]; ANOVA) was 179.88%, the “CL/F Ratio Grade B/Normal (GMR)” value ([2]; ANOVA) was 36.25% and the “CL/F Ratio Grade C/Normal (GMR)” value ([2]; ANOVA) was 55.28%. The “Cmax Ratio Grade C/Normal” value ([2]; ANOVA) was 68.13%, the “Cmax Ratio Grade B/Normal” value ([2]; ANOVA, excludes one outlier subject) was 104.89% and the “AUClast, times higher than normal subjects” value ([2]; Grade B hepatic impairment) was 2.8 times. For the same compound, the “CL/F (Geometric Least Squares Mean, ANOVA)” value ([2]; Grade B hepatic impairment) was 629 L/h, the “CL/F, percent reduction vs normal” value ([2]; Grade B hepatic impairment) was 64% and the “geometric mean Cmax, percent higher than normal” value ([2]; Grade B hepatic impairment, outlier excluded) was 5%. For the same compound, the “geometric mean Cmax, percent higher than normal” value ([2]; Grade B hepatic impairment, outlier included) was 56%, the “AUClast, times higher than normal subjects” value ([2]; Grade C hepatic impairment) was 1.8 times and the “CL/F (Geometric Least Squares Mean, ANOVA)” value ([2]; Grade C hepatic impairment) was 959 L/h. For the same compound, the “CL/F, percent reduction vs normal” value ([2]; Grade C hepatic impairment) was 45%, the “geometric mean Cmax, percent lower than normal” value ([2]; Grade C hepatic impairment) was 32% and the “CL/F (Geometric Least Squares Mean, ANOVA)” value ([2]; Normal hepatic function) was 1735 L/h. For the same compound, the “geometric mean Cmax, percent lower than normal” value ([2]; all hepatically impaired individuals, outlier excluded) was 7%, the “geometric mean Cmax, percent higher than normal” value ([2]; all hepatically impaired individuals, outlier included) was 27% and the AUC(0-t) ([2]; plasma, inhaled or intranasal, AUC0→t (Geometric mean), hepatic impairment, single intranasal 160 mg cocaine HCl) was 189 ng·h/mL. It also gave an AUC(0-t) ([2]; plasma, inhaled or intranasal, AUC0→t (Geometric mean), normal hepatic function, single intranasal 160 mg cocaine HCl) of 79.2 ng·h/mL, an AUC(0-t) ([2]; plasma, inhaled or intranasal, AUC0→t (Mean), hepatic impairment, single intranasal 160 mg cocaine HCl) of 223 ng·h/mL and an AUC(0-t) ([2]; plasma, inhaled or intranasal, AUC0→t (Mean), normal hepatic function, single intranasal 160 mg cocaine HCl) of 92.8 ng·h/mL. It also gave an AUC(0-t) ([2]; plasma, inhaled or intranasal, AUC0→t (Median), hepatic impairment, single intranasal 160 mg cocaine HCl) of 176 ng·h/mL, an AUC(0-t) ([2]; plasma, inhaled or intranasal, AUC0→t (Median), normal hepatic function, single intranasal 160 mg cocaine HCl) of 82.4 ng·h/mL and an AUC(0-inf) ([2]; plasma, inhaled or intranasal, AUC0→∞ (Geometric mean), hepatic impairment, single intranasal 160 mg cocaine HCl) of 192 ng·h/mL. The AUC(0-inf) ([2]; plasma, inhaled or intranasal, AUC0→∞ (Geometric mean), normal hepatic function, single intranasal 160 mg cocaine HCl) was 82.4 ng·h/mL, the AUC(0-inf) ([2]; plasma, inhaled or intranasal, AUC0→∞ (Mean), hepatic impairment, single intranasal 160 mg cocaine HCl) was 227 ng·h/mL and the AUC(0-inf) ([2]; plasma, inhaled or intranasal, AUC0→∞ (Mean), normal hepatic function, single intranasal 160 mg cocaine HCl) was 95.3 ng·h/mL. For the same compound, the AUC(0-inf) ([2]; plasma, inhaled or intranasal, AUC0→∞ (Median), hepatic impairment, single intranasal 160 mg cocaine HCl) was 177 ng·h/mL, the AUC(0-inf) ([2]; plasma, inhaled or intranasal, AUC0→∞ (Median), normal hepatic function, single intranasal 160 mg cocaine HCl) was 83.3 ng·h/mL and the Cmax ([2]; plasma, inhaled or intranasal, Cmax (Geometric mean), hepatic impairment, single intranasal 160 mg cocaine HCl) was 41.2 ng/mL. For the same compound, the Cmax ([2]; plasma, inhaled or intranasal, Cmax (Geometric mean), normal hepatic function, single intranasal 160 mg cocaine HCl) was 44.2 ng/mL, the Cmax ([2]; plasma, inhaled or intranasal, Cmax (Mean), hepatic impairment, single intranasal 160 mg cocaine HCl) was 50.7 ng/mL and the Cmax ([2]; plasma, inhaled or intranasal, Cmax (Mean), normal hepatic function, single intranasal 160 mg cocaine HCl) was 50.6 ng/mL. It also gave a Cmax ([2]; plasma, inhaled or intranasal, Cmax (Median), hepatic impairment, single intranasal 160 mg cocaine HCl) of 42.6 ng/mL, a Cmax ([2]; plasma, inhaled or intranasal, Cmax (Median), normal hepatic function, single intranasal 160 mg cocaine HCl) of 53.6 ng/mL and a Tmax ([2]; plasma, inhaled or intranasal, Tmax (Geometric mean), hepatic impairment, single intranasal 160 mg cocaine HCl) of 0.828 h. It also gave a Tmax ([2]; plasma, inhaled or intranasal, Tmax (Geometric mean), normal hepatic function, single intranasal 160 mg cocaine HCl) of 0.422 h, a Tmax ([2]; plasma, inhaled or intranasal, Tmax (Mean), hepatic impairment, single intranasal 160 mg cocaine HCl) of 1.09 h and a Tmax ([2]; plasma, inhaled or intranasal, Tmax (Mean), normal hepatic function, single intranasal 160 mg cocaine HCl) of 0.431 h. It also gave a Tmax ([2]; plasma, inhaled or intranasal, Tmax (Median), hepatic impairment, single intranasal 160 mg cocaine HCl) of 0.75 h, a Tmax ([2]; plasma, inhaled or intranasal, Tmax (Median), normal hepatic function, single intranasal 160 mg cocaine HCl) of 0.5 h and a half-life ([2]; plasma, inhaled or intranasal, t1/2 (Geometric mean), hepatic impairment, single intranasal 160 mg cocaine HCl) of 4.99 h. It also gave a half-life ([2]; plasma, inhaled or intranasal, t1/2 (Geometric mean), normal hepatic function, single intranasal 160 mg cocaine HCl) of 6.62 h, a half-life ([2]; plasma, inhaled or intranasal, t1/2 (Mean), hepatic impairment, single intranasal 160 mg cocaine HCl) of 5.42 h and a half-life ([2]; plasma, inhaled or intranasal, t1/2 (Mean), normal hepatic function, single intranasal 160 mg cocaine HCl) of 8.11 h. For the same compound, the half-life ([2]; plasma, inhaled or intranasal, t1/2 (Median), hepatic impairment, single intranasal 160 mg cocaine HCl) was 5.63 h, the half-life ([2]; plasma, inhaled or intranasal, t1/2 (Median), normal hepatic function, single intranasal 160 mg cocaine HCl) was 6.93 h and the AUC(0-inf) ([2]; plasma, other: intranasal (drug-soaked pledgets in the nasal cavity), AUCinf, range observed, hepatically impaired patients) was 88 to 366 ng·h/mL. The AUC(0-t) ([2]; plasma, other: intranasal (drug-soaked pledgets in the nasal cavity), AUClast (Geometric Least Squares Mean, ANOVA), Grade B hepatic impairment) was 225 ng·h/mL, the AUC(0-t) ([2]; plasma, other: intranasal (drug-soaked pledgets in the nasal cavity), AUClast (Geometric Least Squares Mean, ANOVA), Grade C hepatic impairment) was 142 ng·h/mL and the AUC(0-t) ([2]; plasma, other: intranasal (drug-soaked pledgets in the nasal cavity), AUClast (Geometric Least Squares Mean, ANOVA), Normal hepatic function) was 79.2 ng·h/mL. The Cmax ([2]; plasma, other: intranasal (drug-soaked pledgets in the nasal cavity), Cmax (Geometric Least Squares Mean, ANOVA), Grade B hepatic impairment, excludes one subject with anomalous concentration at 7 minutes) was 46.4 ng/mL, the Cmax ([2]; plasma, other: intranasal (drug-soaked pledgets in the nasal cavity), Cmax (Geometric Least Squares Mean, ANOVA), Grade C hepatic impairment) was 30.1 ng/mL and the Cmax ([2]; plasma, other: intranasal (drug-soaked pledgets in the nasal cavity), Cmax (Geometric Least Squares Mean, ANOVA), Normal hepatic function) was 44.2 ng/mL. The Cmax ([2]; plasma, other: intranasal (drug-soaked pledgets in the nasal cavity), Cmax, range observed, hepatically impaired patients) was 16.2 to 85.2 ng/mL, the Tmax ([2]; plasma, other: intranasal (drug-soaked pledgets in the nasal cavity), Tmax (approximate), normal hepatic function, plasma) was ~0.5 h and the Tmax ([2]; plasma, other: intranasal (drug-soaked pledgets in the nasal cavity), Tmax, range observed, hepatically impaired patients) was 0.306 to 1.87 h. For the same compound, the “plasma exposure after Tmax, times higher than normal hepatic function” value ([2]; hepatic impairment group) was “about 2.5 times”, the “AUC0→t (Max)” value [2, 5] was 523 ng·h/mL and the “AUC0→t (Min)” value [2, 5] was 89.5 ng·h/mL. The “AUC0→∞ (Max)” value [2, 5] was 528 ng·h/mL, the “AUC0→∞ (Min)” value [2, 5] was 90.9 ng·h/mL and the “Clast (Geometric mean)” value [2, 5] was 0.270 ng/mL. The “Clast (Max)” value [2, 5] was 1.73 ng/mL, the “Clast (Mean)” value [2, 5] was 0.393 ng/mL and the “Clast (Median)” value [2, 5] was 0.211 ng/mL. The “Clast (Min)” value [2, 5] was 0.115 ng/mL, the “Cmax (Max)” value [2, 5] was 119 ng/mL and the “Cmax (Min)” value [2, 5] was 17.1 ng/mL. The “Tlast (Geometric mean)” value [2, 5] was 31.6 h, the “Tlast (Max)” value [2, 5] was 32.0 h and the “Tlast (Mean)” value [2, 5] was 31.6 h. For the same compound, the “Tlast (Median)” value [2, 5] was 32.0 h and the “Tlast (Min)” value [2, 5] was 1680 min.
